Results published in publication PMC3499469, “Structural Insight into Inhibitor of Apoptosis Proteins Recognition by a Potent Divalent Smac-Mimetic” (PLoS ONE, 2012).

Biological target: T1, cIAP2-BIR3 (Homo sapiens, UniProt Q13489)
T1 construct: gene BIRC3; BIR3 domain, residues 245-357 as printed (jointly with cIAP1), C-terminal 6xHis-tag, pET21(b), E. coli BL21(DE3)
Test: fluorescence polarization displacement of fluorescent probe FITC-SMAC
Conditions: read-out: Fluorescence Binding Assays IC50 [nM] / cIAP2-BIR3
Excerpt: fluorescence polarization displacement of fluorescent probe FITC-SMAC on cIAP2-BIR3

T1 sequence (Q13489 245-357): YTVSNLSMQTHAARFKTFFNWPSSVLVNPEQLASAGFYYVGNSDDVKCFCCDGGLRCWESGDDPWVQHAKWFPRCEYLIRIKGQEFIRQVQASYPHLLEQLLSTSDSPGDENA

- IC50: 1.9 ± 0.9 nM
Compound: CC[C@H](NC)C(=O)N[C@@H]1C(=O)N2[C@@H](CC[C@@H]1CO)CC[C@H]2C(=O)N[C@@H](c1ccccc1)c1cn(CCCCc2ccc(CCCCn3cc([C@@H](NC(=O)[C@@H]4CC[C@@H]5CC[C@H](CO)[C@H](NC(=O)[C@H](CC)NC)C(=O)N54)c4ccccc4)nn3)cc2)nn1 [9a]
